# Assay results: patent publication US20100298141A1, “SUBSTITUTED PYRIDINE N-OXIDE HERBICIDES” (E. I. DU PONT DE NEMOURS AND COMPANY, priority 2007, published 2010)
# Legend:
# [1] = system: giant foxtail; experiment: Test A pre-/postemergence greenhouse test; type: in vivo, Setaria faberi; settings: for Foxtail, Giant plant response rating: 0 to 100 scale
# Summary of the method: (§1)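 Pots of loam–sand soil sown with the test species are sprayed preemergence on the soil surface; emerged seedlings (1–2 leaves, 2–10 cm) are sprayed postemergence at the same time. The vehicle is a non-phytotoxic solvent mixture with surfactant. Injury is scored visually after ~10 d in greenhouse.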
# [2] = system: lambsquarters; experiment: Test C pre-/postemergence test; type: in vivo, Chenopodium album; settings: Postemergence; for Plant response rating, Lambsquarters: scale 0 to 100, 0 no effect, 100 complete control
# Summary of the method: (§2)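 Test chemicals were formulated with surfactant in a non-phytotoxic solvent and sprayed both on freshly planted seeds (preemergence) and on 1- to 4-leaf plants of 2–18 cm (postemergence). Flooded-paddy pots received compound directly into 3 cm of standing water, maintained for the test.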
# [3] = system: duck salad; experiment: Test C flooded paddy test; type: in vivo, Heteranthera limosa; settings: Flood
# Summary of the method: (§3)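 Compound was added to standing water 3 cm above soil, flood maintained, and plants held in a greenhouse before visual scoring against controls at 13 to 15 days.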
# [4] = system: barnyardgrass; experiment: Test A pre-/postemergence greenhouse test; type: in vivo, Echinochloa crus-galli; settings: for Barnyardgrass plant response rating: 0 to 100 scale
# Summary of the method: as §1
# [5] = system: green foxtail; experiment: Test C pre-/postemergence test; type: in vivo, Setaria viridis; settings: Postemergence; for Plant response rating, Foxtail, Green: scale 0 to 100, 0 no effect, 100 complete control
# Summary of the method: as §2
# [6] = system: common ragweed; experiment: Test C pre-/postemergence test; type: in vivo, Ambrosia elation; settings: Postemergence; for Plant response rating, Ragweed: scale 0 to 100, 0 no effect, 100 complete control
# Summary of the method: as §2
# [7] = system: crabgrass; experiment: Test A pre-/postemergence greenhouse test; type: in vivo, Digitaria sanguinalis; settings: for Crabgrass, Large plant response rating: 0 to 100 scale
# Summary of the method: as §1
# [8] = system: barnyardgrass; experiment: Test C flooded paddy test; type: in vivo, Echinochloa crus-galli; settings: Flood
# Summary of the method: as §3
# [9] = system: soybean; experiment: Test C pre-/postemergence test; type: in vivo, Glycine max; settings: Postemergence; for Plant response rating, Soybean: scale 0 to 100, 0 no effect, 100 complete control
# Summary of the method: as §2
# [10] = system: woolly cupgrass; experiment: Test C pre-/postemergence test; type: in vivo, Eriochloa villosa; settings: Postemergence; for Plant response rating, Cupgrass, Woolly: scale 0 to 100, 0 no effect, 100 complete control
# Summary of the method: as §2
# [11] = system: velvetleaf; experiment: Test A pre-/postemergence greenhouse test; type: in vivo, Abutilon theophrasti; settings: for Velvetleaf plant response rating: 0 to 100 scale
# Summary of the method: as §1
# [12] = system: blackgrass; experiment: Test C pre-/postemergence test; type: in vivo, Alopecurus myosuroides; settings: Postemergence; for Plant response rating, Blackgrass: scale 0 to 100, 0 no effect, 100 complete control
# Summary of the method: as §2
# [13] = system: pigweed; experiment: Test C pre-/postemergence test; type: in vivo, Amaranthus retroflexus; settings: Postemergence; for Plant response rating, Pigweed: scale 0 to 100, 0 no effect, 100 complete control
# Summary of the method: as §2
# [14] = system: downy brome; experiment: Test C pre-/postemergence test; type: in vivo, Bromus tectorum; settings: Postemergence; for Plant response rating, Bromegrass, Downy: scale 0 to 100, 0 no effect, 100 complete control
# Summary of the method: as §2
# [15] = system: velvetleaf; experiment: Test C pre-/postemergence test; type: in vivo, Abutilon theophrasti; settings: Postemergence; for Plant response rating, Velvetleaf: scale 0 to 100, 0 no effect, 100 complete control
# Summary of the method: as §2
# [16] = system: Surinam grass; experiment: Test C pre-/postemergence test; type: in vivo, Brachiaria decumbens; settings: Postemergence; for Plant response rating, Surinam Grass: scale 0 to 100, 0 no effect, 100 complete control
# Summary of the method: as §2
# [17] = Postemergence, 125 g ai/ha, 0 is no effect, 100 is complete control
# [18] = Postemergence, 500 g ai/ha, 0 is no effect, 100 is complete control
# [19] = Preemergence, 125 g ai/ha, 0 no effect, 100 complete control
# [20] = Preemergence, 500 g ai/ha, 0 to 100 scale where 0 is no effect and 100 is complete control
# [21] = 31 g ai/ha, scale 0 to 100 (0 no effect, 100 complete control)
# [22] = 62 g ai/ha, scale 0 to 100, 0 no effect, 100 complete control, 13 to 15 days
# [23] = 125 g ai/ha, scale 0 to 100, 0 no effect, 100 complete control, 13 to 15 days
# [24] = 250 g ai/ha, scale 0 to 100, 0 no effect, 100 complete control, 13 to 15 days
structure (smiles),measurement,setting,value
CC(c1c(C(F)(F)F)nn(C)c1Cl)S(=O)(=O)c1ccc(Cl)c[n+]1[O-] (racemic) [Compound 40],"Foxtail, Giant plant response rating",[1]; [17],80
same,"Foxtail, Giant plant response rating",[1]; [18],90
same,"Foxtail, Giant plant response rating",[1]; [19],90
same,"Plant response rating, Foxtail, Giant",[1]; [20],100
same,"Plant response rating (0 to 100), Lambsquarters",[2]; 31 g ai/ha,0
same,"Plant response rating, Lambsquarters",[2]; 62 g ai/ha,0
same,"Plant response rating, Lambsquarters",[2]; 125 g ai/ha,0
same,"Plant response rating, Lambsquarters",[2]; 250 g ai/ha,0
same,"Plant response rating, Ducksalad",[3]; [21],20
same,"Plant response rating, Ducksalad",[3]; [22],45
same,"Plant response rating, Ducksalad",[3]; [23],80
same,"Plant response rating, Ducksalad",[3]; [24],90
same,Barnyardgrass plant response rating,[4]; [17],80
same,Barnyardgrass plant response rating,[4]; [18],90
same,Barnyardgrass plant response rating,[4]; [19],70
same,"Plant response rating, Barnyardgrass",[4]; [20],100
same,"Plant response rating (0 to 100), Foxtail, Green",[5]; 31 g ai/ha,0
same,"Plant response rating, Foxtail, Green",[5]; 62 g ai/ha,0
same,"Plant response rating, Foxtail, Green",[5]; 125 g ai/ha,0
same,"Plant response rating, Foxtail, Green",[5]; 250 g ai/ha,5
same,"Plant response rating (0 to 100), Ragweed",[6]; 31 g ai/ha,0
same,"Plant response rating (0 to 100), Ragweed",[6]; 62 g ai/ha,0
same,"Plant response rating, Ragweed",[6]; 125 g ai/ha,0
same,"Plant response rating, Ragweed",[6]; 250 g ai/ha,5
same,"Crabgrass, Large plant response rating",[7]; [17],80
same,"Crabgrass, Large plant response rating",[7]; [18],80
same,"Crabgrass, Large plant response rating",[7]; [19],60
same,"Plant response rating, Crabgrass, Large",[7]; [20],90
same,"Plant response rating, Barnyardgrass",[8]; [21],0
same,"Plant response rating, Barnyardgrass",[8]; [22],15
same,"Plant response rating, Barnyardgrass",[8]; [23],60
same,"Plant response rating, Barnyardgrass",[8]; [24],65
same,"Plant response rating (0 to 100), Soybean",[9]; 31 g ai/ha,0
same,"Plant response rating (0 to 100), Soybean",[9]; 62 g ai/ha,0
same,"Plant response rating, Soybean",[9]; 125 g ai/ha,0
same,"Plant response rating, Soybean",[9]; 250 g ai/ha,0
same,"Plant response rating (0 to 100), Cupgrass, Woolly",[10]; 31 g ai/ha,0
same,"Plant response rating, Cupgrass, Woolly",[10]; 62 g ai/ha,0
same,"Plant response rating, Cupgrass, Woolly",[10]; 125 g ai/ha,0
same,"Plant response rating, Cupgrass, Woolly",[10]; 250 g ai/ha,0
same,Velvetleaf plant response rating,[11]; [17],50
same,Velvetleaf plant response rating,[11]; [18],60
same,Velvetleaf plant response rating,[11]; [19],0
same,"Plant response rating, Velvetleaf",[11]; [20],50
same,"Plant response rating (0 to 100), Blackgrass",[12]; 31 g ai/ha,0
same,"Plant response rating, Blackgrass",[12]; 62 g ai/ha,0
same,"Plant response rating, Blackgrass",[12]; 125 g ai/ha,0
same,"Plant response rating, Blackgrass",[12]; 250 g ai/ha,0
same,"Plant response rating (0 to 100), Pigweed",[13]; 31 g ai/ha,0
same,"Plant response rating (0 to 100), Pigweed",[13]; 62 g ai/ha,0
same,"Plant response rating, Pigweed",[13]; 125 g ai/ha,0
same,"Plant response rating, Pigweed",[13]; 250 g ai/ha,0
same,"Plant response rating (0 to 100), Bromegrass, Downy",[14]; 31 g ai/ha,0
same,"Plant response rating, Bromegrass, Downy",[14]; 62 g ai/ha,0
same,"Plant response rating, Bromegrass, Downy",[14]; 125 g ai/ha,0
same,"Plant response rating, Bromegrass, Downy",[14]; 250 g ai/ha,0
same,"Plant response rating (0 to 100), Velvetleaf",[15]; 31 g ai/ha,0
same,"Plant response rating (0 to 100), Velvetleaf",[15]; 62 g ai/ha,0
same,"Plant response rating, Velvetleaf",[15]; 125 g ai/ha,0
same,"Plant response rating, Velvetleaf",[15]; 250 g ai/ha,0
same,"Plant response rating (0 to 100), Surinam Grass",[16]; 31 g ai/ha,0
same,"Plant response rating (0 to 100), Surinam Grass",[16]; 62 g ai/ha,0
same,"Plant response rating, Surinam Grass",[16]; 125 g ai/ha,0
same,"Plant response rating, Surinam Grass",[16]; 250 g ai/ha,0
